Measured values from patent publication US8389012B2, “Gellan-gum nanoparticles and methods of making and using the same” (The Corporation of Mercer University, priority 2008, dated 2013).
Where two headings read alike, the source gives them in different places.

Legend:
PC-3 tumors [1] = assay: In vivo efficacy in athymic nude mice bearing human xenograft prostate cancer tumor; settings: single i.v. injection, 60 days
Description: For in vivo efficacy study, athymic nude mice bearing human prostate tumor (−150 mm^3) were divided into five groups of four mice, minimizing, weight and tumor size differences. […] Human xenograft prostate cancer tumors were induced in 6-week old athymic nude mice (NCI Frederick, Md., USA). Mice were injected subcutaneously in the right flank with 2.5×10^6 PC-3 cells suspended in a 1:1 mixture of serum-free media and matrigel (BD Biosciences, Franklin Lakes, N.J., USA). Prior to use in tumor induction, PC-3 cells were cultured in RPMI-1640 medium supplemented with 10% fetal bovine serum, 100 units/ml penicillin G, and 100 mg/ml streptomycin. Tumor targeting studies were carried out after the mice developed ˜150 mm^3 tumors. […] After dosing, the mice were monitored for weight and implanted tumor size daily for sixty days. The length and width of the tumors were measured by digital calipers and tumor volume was calculated by the following formula: (width^2×length)/2 [17]. […]
To evaluate the in vivo efficacy of Ptx-GGbPEG-Apt copolymeric nanoparticles, PC-3 cells were injected subcutaneously in the flanks of athymic nude mice as described above. […] The tumor size and body weight were then monitored for 60 days.

[2] = i.v.; cited from earlier work
PC-3 tumors [3] = assay: Histological analysis of excised tumor (H & E); type: in vivo, mice; settings: day 60 post treatment
Description: Selected tumors from each group were harvested and fixed in 10% neutral buffered formalin. Tumors were paraffin embedded, sectioned, placed on polylysine slides, and stained with Hematoxylin & Eosin (H & E) to visualize morphological changes in the tumors in both the treated and control groups. Images were recorded using a light microscope equipped with camera.

PC-3 cells = assay: MTT cytotoxicity assay, PC-3; type: cell-based, human; settings: PC-3, 10, 30, 120 minutes treatment, then 72 h
Description: To investigate the cytotoxicity of Ptx-GGbPEG-Apt nanoparticles on human prostate cancer cells, mitochondrial dehydrogenase assay (MTT) was employed. PC-3 or DU-145 cells (5×10^3) were seeded in 96-well plates containing 100 μl of RPMI medium 1640 (American Type Culture Collection), supplemented with 100 units/ml aqueous penicillin G, 100 μg/ml streptomycin, and 10% FBS. Cells were then allowed to adhere overnight prior to treatment. On the day of experiment, cells were washed twice with PBS and then exposed to similar concentrations (25 μg/ml) of Ptx in either the encapsulated or free formulations. The control cells received 1% (v/v) DMSO or drug free GGbPEG nanoparticles (1.0 μg/ml). Cells were incubated with drug formulations for different time points (10, 30, 120 mins) followed by washing with PBS and replacing treatment medium with fresh medium in the plates. Cells were further incubated for 72 h. […] The optical densities (OD) of the resulting solutions were determined at 490 nm using a microplate reader (Packard Instruments, Meriden, Conn.) and cell viability (%) was calculated by comparing the OD of the treatment group relative to that of the untreated control group (100%).

DU-145 cells = assay: MTT cytotoxicity assay, DU-145; type: cell-based, human; settings: then 72 h; for viability at 25 µg/mL: Homo sapiens, DU-145, DU-145, 25 μg/ml Ptx, read-out: cell viability
Description: To investigate the cytotoxicity of Ptx-GGbPEG-Apt nanoparticles on human prostate cancer cells, mitochondrial dehydrogenase assay (MTT) was employed. PC-3 or DU-145 cells (5×10^3) were seeded in 96-well plates containing 100 μl of RPMI medium 1640 (American Type Culture Collection), supplemented with 100 units/ml aqueous penicillin G, 100 μg/ml streptomycin, and 10% FBS. Cells were then allowed to adhere overnight prior to treatment. On the day of experiment, cells were washed twice with PBS and then exposed to similar concentrations (25 μg/ml) of Ptx in either the encapsulated or free formulations. The control cells received 1% (v/v) DMSO or drug free GGbPEG nanoparticles (1.0 μg/ml). Cells were incubated with drug formulations for different time points (10, 30, 120 mins) followed by washing with PBS and replacing treatment medium with fresh medium in the plates. Cells were further incubated for 72 h. At the end of treatment period, medium was removed and replaced with 100 μl of complete culture medium and 10 μl of MTT (5 mg/ml) in each well and the plates were incubated at 37° C. in a humidified, 5% CO2 atmosphere for 3 h. The resulting formazan crystals were solubilized with 100 μl of the stop solution (0.1N HCl in isopropanol). The optical densities (OD) of the resulting solutions were determined at 490 nm using a microplate reader (Packard Instruments, Meriden, Conn.) and cell viability (%) was calculated by comparing the OD of the treatment group relative to that of the untreated control group (100%).

For CC(=O)O[C@H]1C(=O)[C@@]2(C)[C@H]([C@H](OC(=O)c3ccccc3)[C@]3(O)C[C@H](OC(=O)[C@H](O)[C@@H](NC(=O)c4ccccc4)c4ccccc4)C(C)=C1C3(C)C)[C@]1(OC(C)=O)CO[C@@H]1C[C@@H]2O [Ptx, Paclitaxel], the “efficacy in tumor reduction (comparison of groups)” value (PC-3 tumors [1]) is listed as “does not show any significant long-term efficacy”, the “maximal tolerated dose (MTD)” value [2] is listed as 40 mg/kg and the “histological examination of tumors by H & E staining” value (PC-3 tumors [3]) is listed as “extensively necrotic”. The cytotoxic effect (PC-3 cells) was “time-dependent cytotoxicity”, the cytotoxic effect (DU-145 cells; DU-145, 10, 30, 120 minutes treatment) was “time-dependent cytotoxicity” and the viability at 25 µg/mL (DU-145 cells; treated 30 minutes) was 50%. The viability at 25 µg/mL (DU-145 cells; treated 120 min) was 35%.
